Experimental data published in patent US10660877B2 (BRISTOL-MYERS SQUIBB COMPANY, priority 2016, dated 2020).
pIC50: −log10 of the molar value. Read-outs that look alike come from different tables or passages of the source.

Key:
human TLR9 = human TLR9 (Homo sapiens (Human), UniProt Q9NR96); experiment: TLR9 inhibition reporter assay (HEK-Blue cells, SEAP reporter, ODN2006 stimulation);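 also: compounds tested over 0.05 nM to 50 µM, 22 h incubation, inhibition taken as SEAP signal drop from agonist plus DMSO wells toward a known inhibitor control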
Sequence of human TLR9 (Q9NR96 26-1032): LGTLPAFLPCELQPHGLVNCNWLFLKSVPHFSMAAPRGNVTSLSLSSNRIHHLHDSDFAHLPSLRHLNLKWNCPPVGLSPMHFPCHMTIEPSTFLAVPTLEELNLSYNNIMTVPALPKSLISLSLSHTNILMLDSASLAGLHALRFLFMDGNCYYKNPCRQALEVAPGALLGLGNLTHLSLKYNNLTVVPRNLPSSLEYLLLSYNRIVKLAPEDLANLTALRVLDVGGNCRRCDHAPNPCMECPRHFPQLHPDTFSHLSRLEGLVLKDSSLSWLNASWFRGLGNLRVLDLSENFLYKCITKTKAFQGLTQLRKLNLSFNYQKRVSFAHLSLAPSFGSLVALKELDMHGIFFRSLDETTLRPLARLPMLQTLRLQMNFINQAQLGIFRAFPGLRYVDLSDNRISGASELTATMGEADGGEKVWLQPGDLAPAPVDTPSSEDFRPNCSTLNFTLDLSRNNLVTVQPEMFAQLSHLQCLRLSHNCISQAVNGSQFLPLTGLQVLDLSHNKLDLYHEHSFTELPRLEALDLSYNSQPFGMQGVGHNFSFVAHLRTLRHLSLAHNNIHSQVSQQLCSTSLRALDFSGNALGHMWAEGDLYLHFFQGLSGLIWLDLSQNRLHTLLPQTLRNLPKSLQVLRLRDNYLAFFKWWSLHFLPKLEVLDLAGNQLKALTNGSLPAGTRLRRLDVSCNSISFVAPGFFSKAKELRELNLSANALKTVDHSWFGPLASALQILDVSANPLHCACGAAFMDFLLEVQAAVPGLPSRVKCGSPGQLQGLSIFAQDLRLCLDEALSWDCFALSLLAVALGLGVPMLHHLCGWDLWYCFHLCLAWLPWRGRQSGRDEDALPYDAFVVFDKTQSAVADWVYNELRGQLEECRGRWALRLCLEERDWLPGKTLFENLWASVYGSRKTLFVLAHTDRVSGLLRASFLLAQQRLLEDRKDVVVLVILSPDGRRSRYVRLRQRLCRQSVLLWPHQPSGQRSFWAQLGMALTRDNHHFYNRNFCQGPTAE

human TLR7 = human TLR7 (Homo sapiens (Human), UniProt Q9NYK1); experiment: TLR7 inhibition reporter assay (HEK-Blue cells, SEAP reporter, gardiquimod stimulation); type: cell-based
Sequence of human TLR7 (Q9NYK1 27-1049): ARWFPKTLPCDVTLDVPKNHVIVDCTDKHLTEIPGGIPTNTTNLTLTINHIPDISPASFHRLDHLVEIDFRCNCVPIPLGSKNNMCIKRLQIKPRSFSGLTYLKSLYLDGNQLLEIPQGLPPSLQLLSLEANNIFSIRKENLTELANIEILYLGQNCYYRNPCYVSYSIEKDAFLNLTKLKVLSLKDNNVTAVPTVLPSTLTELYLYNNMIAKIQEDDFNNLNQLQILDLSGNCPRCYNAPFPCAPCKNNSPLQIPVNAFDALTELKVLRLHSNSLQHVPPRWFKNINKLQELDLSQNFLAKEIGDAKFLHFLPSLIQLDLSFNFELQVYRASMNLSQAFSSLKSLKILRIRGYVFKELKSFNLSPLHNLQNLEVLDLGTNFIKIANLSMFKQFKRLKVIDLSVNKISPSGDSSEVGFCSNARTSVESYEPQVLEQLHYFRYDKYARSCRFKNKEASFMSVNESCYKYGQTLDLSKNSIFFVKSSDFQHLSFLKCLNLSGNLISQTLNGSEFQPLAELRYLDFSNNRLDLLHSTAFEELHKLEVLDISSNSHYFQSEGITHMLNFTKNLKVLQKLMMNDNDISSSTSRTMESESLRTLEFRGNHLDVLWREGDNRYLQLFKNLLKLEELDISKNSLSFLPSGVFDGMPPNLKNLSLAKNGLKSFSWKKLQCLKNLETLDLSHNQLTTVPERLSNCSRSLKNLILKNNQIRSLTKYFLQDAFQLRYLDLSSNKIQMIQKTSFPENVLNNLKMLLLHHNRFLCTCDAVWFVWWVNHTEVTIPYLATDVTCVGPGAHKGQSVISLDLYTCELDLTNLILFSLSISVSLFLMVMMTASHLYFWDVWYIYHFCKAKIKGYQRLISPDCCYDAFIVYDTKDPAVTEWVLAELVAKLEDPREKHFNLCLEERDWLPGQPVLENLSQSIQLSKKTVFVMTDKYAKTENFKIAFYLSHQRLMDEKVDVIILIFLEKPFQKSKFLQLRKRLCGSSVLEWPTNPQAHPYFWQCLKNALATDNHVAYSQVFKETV

human TLR8 = human TLR8 (Homo sapiens (Human), UniProt Q9NR97); experiment: TLR8 inhibition reporter assay (HEK-Blue cells, SEAP reporter, R848 stimulation);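 also: compounds tested from 0.05 nM to 50 µM, 22 h at 37 °C, SEAP measured with HEK-Blue Detection, inhibition relative to agonist plus DMSO versus a known inhibitor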
Sequence of human TLR8 (Q9NR97 27-1041): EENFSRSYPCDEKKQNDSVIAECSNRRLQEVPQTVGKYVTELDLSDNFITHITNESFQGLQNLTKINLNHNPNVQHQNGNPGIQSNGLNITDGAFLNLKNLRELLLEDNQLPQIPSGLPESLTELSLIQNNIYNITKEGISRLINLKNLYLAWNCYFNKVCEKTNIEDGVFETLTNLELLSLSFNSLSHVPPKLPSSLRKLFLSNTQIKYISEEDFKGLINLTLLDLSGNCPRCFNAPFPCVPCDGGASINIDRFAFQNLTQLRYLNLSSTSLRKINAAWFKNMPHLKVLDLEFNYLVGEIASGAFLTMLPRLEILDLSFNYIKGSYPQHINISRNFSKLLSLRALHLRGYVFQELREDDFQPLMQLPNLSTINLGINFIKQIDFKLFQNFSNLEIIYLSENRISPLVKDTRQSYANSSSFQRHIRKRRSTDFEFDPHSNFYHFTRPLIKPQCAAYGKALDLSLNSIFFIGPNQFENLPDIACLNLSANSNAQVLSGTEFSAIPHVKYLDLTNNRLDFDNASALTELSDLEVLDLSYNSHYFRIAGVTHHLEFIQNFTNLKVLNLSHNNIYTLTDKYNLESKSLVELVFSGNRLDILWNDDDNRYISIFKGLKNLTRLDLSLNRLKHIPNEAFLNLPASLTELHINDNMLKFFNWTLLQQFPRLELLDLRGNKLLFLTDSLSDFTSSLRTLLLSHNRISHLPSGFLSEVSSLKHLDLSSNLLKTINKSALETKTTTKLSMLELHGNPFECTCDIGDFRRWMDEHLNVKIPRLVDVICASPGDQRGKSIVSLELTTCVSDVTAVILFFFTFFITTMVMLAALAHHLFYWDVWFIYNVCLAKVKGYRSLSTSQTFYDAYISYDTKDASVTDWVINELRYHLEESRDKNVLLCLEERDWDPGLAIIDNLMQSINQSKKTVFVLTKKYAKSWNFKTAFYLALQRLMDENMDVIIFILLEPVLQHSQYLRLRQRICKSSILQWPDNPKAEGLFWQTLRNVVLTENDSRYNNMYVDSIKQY

[1] = read-out: TLR9 IC50, HEK-Blue cells overexpressing human TLR9, ODN2006 5 nM
[2] = HEK-Blue cells overexpressing human TLR7, gardiquimod 7.5 μM
[3] = read-out: TLR8 IC50, HEK-Blue cells overexpressing human TLR8, R848 15.9 μM

Structure (SMILES) | pIC50 (human TLR9; [1]) | pIC50 (human TLR7; [2]) | pIC50 (human TLR8; [3]) | pIC50 (human TLR9; TLR9 IC50, HEK-Blue cells overexpressing human TLR9, ODN2006 5 nM) | pIC50 (human TLR8; TLR8 IC50, HEK-Blue cells overexpressing human TLR8, R848 15.9 μM) | pIC50 (human TLR9; read-out: TLR9 IC50, HEK-Blue cells, ODN2006 5 nM) | pIC50 (human TLR7; HEK-Blue cells, gardiquimod 7.5 μM) | pIC50 (human TLR8; read-out: TLR8 IC50, HEK-Blue cells, R848 15.9 μM)
Cc1cc(-c2[nH]c3ccc(C4CCN(C(=O)C5CCCO5)CC4)cc3c2C(C)C)cc(C)n1 (stereo not drawn) [Example 103, (4-(2-(2,6-dimethylpyridin-4-yl)-3-isopropyl-1H-indol-5-yl)piperidin-1-yl)(tetrahydrofuran-2-yl)methanone] | 4.56 | 8.07 | 7.09 | – | – | – | – | –
Cc1cc(-c2[nH]c3ccc(C4CCN(C(=O)CC5C(=O)NC(=O)N5C)CC4)cc3c2C(C)C)cc(C)n1 (stereo not drawn) [Example 130, 5-(2-(4-(2-(2,6-dimethylpyridin-4-yl)-3-isopropyl-1H-indol-5-yl)piperidin-1-yl)-2-oxoethyl)-1-methylimidazolidine-2,4-dione] | 4.93 | 7.53 | 7.13 | – | – | – | – | –
Cc1cc(-c2[nH]c3ccc(C4CCN(C(=O)C5(C(F)(F)F)CC5)CC4)cc3c2C(C)C)ccn1 [Example 605, (4-(3-isopropyl-2-(2-methylpyridin-4-yl)-1H-indol-5-yl)piperidin-1-yl)(1-(trifluoromethyl)cyclopropyl)methanone] | 4.85 | 7.11 | 6.91 | – | – | – | – | –
COc1cc(-c2[nH]c3ccc(C4CCN(C5CCNCC5)CC4)cc3c2C(C)C)ccn1 [Example 800, 5-([1,4′-bipiperidin]-4-yl)-3-isopropyl-2-(2-methoxypyridin-4-yl)-1H-indole] | 6.14 | 6.78 | 6.73 | – | – | – | – | –
Cc1cc(-c2[nH]c3ccc(C4CCNC(=O)C4)cc3c2C(C)C)ccn1 (stereo not drawn) [Example 490, 4-(3-isopropyl-2-(2-methylpyridin-4-yl)-1H-indol-5-yl)piperidin-2-one] | < 4.30 | 6.73 | 7.17 | – | – | – | – | –
CCc1c(-c2ccnc(-c3noc(N)n3)c2)[nH]c2ccc(C3CCNCC3)cc12 [Example 65, 3-(4-(3-ethyl-5-(piperidin-4-yl)-1H-indol-2-yl)pyridin-2-yl)-1,2,4-oxadiazol-5-amine] | 5.79 | 5.66 | 6.26 | – | – | – | – | –
Cc1cc(-c2[nH]c3ccc(C4CCN(CC(=O)NCC5CC5)CC4)cc3c2C(C)C)cc(C)n1 [Example 223, N-(cyclopropylmethyl)-2-(4-(2-(2,6-dimethylpyridin-4-yl)-3-isopropyl-1H-indol-5-yl)piperidin-1-yl)acetamide] | 5.94 | 8.43 | 7.97 | – | – | – | – | –
COc1cc(-c2[nH]c3ccc(C4CCNCC4)cc3c2C(C)C)c(F)cn1 [Example 47, 2-(5-fluoro-2-methoxypyridin-4-yl)-3-isopropyl-5-(piperidin-4-yl)-1H-indole] | 5.46 | 8.05 | 7.44 | – | – | – | – | –
Cc1ccc(S(=O)(=O)N2CCC(c3ccc4[nH]c(-c5ccnc(C)c5)c(C(C)C)c4c3)CC2)cc1 [Example 554] | < 4.30 | 6.36 | 5.97 | – | – | – | – | –
Cc1cc(-c2[nH]c3ccc(C4CCN(C(=O)C5(C#N)CC5)CC4)cc3c2C(C)C)ccn1 [Example 611, 1-(4-(3-isopropyl-2-(2-methylpyridin-4-yl)-1H-indol-5-yl)piperidine-1-carbonyl)cyclopropane-1-carbonitrile] | 5.02 | 7.71 | 6.97 | – | – | – | – | –
CCc1c(-c2ccncc2)[nH]c2ccc(C3CCN(C4CCN(CC(C)C)CC4)CC3)cc12 [Example 779, 3-ethyl-5-(1′-isobutyl-[1,4′-bipiperidin]-4-yl)-2-(pyridin-4-yl)-1H-indole] | 6.80 | 5.68 | 7.06 | – | – | – | – | –
CNCCN1CCC(c2ccc3[nH]c(-c4ccnc(C(=O)OC)c4)c(C)c3c2)CC1 [Example 752, methyl 4-(3-methyl-5-(1-(2-(methylamino)ethyl)piperidin-4-yl)-1H-indol-2-yl) picolinate] | 6.70 | 6.64 | 6.94 | – | – | – | – | –
Cc1cc(-c2[nH]c3ccc(C4CCN(CC(O)C(F)(F)F)CC4)cc3c2C(C)C)cc(C)n1 (stereo not drawn) [Example 317, 3-(4-(2-(2,6-dimethylpyridin-4-yl)-3-isopropyl-1H-indol-5-yl)piperidin-1-yl)-1,1-trifluoropropan-2-ol] | 5.95 | 7.86 | 7.88 | – | – | – | – | –
Cc1cc(-c2[nH]c3ccc(C4CCN(C(=O)CN(C)C)CC4)cc3c2C(C)C)cc(C2CC2)n1 [Example 506, 1-(4-(2-(2-cyclopropyl-6-methylpyridin-4-yl)-3-isopropyl-1H-indol-5-yl)piperidin-1-yl)-2-(dimethylamino)ethan-1-one] | 5.96 | 7.95 | 7.37 | – | – | – | – | –
CCc1c(-c2ccnc(C)c2)[nH]c2ccc(C3CCN(C(=O)C4CCCNC4)CC3)cc12 (stereo not drawn) [Example 624, (4-(3-ethyl-2-(2-methylpyridin-4-yl)-1H-indol-5-yl)piperidin-1-yl)(piperidin-3-yl)methanone] | 6.51 | 6.89 | 7.36 | – | – | – | – | –
Cc1cc(-c2[nH]c3ccc(C4CCN(CC(=O)NC(C)C)CC4)cc3c2C(C)C)cc(C)n1 [Example 218, 2-(4-(2-(2,6-dimethylpyridin-4-yl)-3-isopropyl-1H-indol-5-yl)piperidin-1-yl)-N-isopropylacetamide] | 6.02 | 8.31 | 7.98 | – | – | – | – | –
Cc1cc(-c2[nH]c3ccc(C4CCN(C(=O)CN5C[C@@H](C(F)(F)F)C[C@H]5CO)CC4)cc3c2C(C)C)cc(C)n1 [Example 394, 1-(4-(2-(2,6-dimethylpyridin-4-yl)-3-isopropyl-1H-indol-5-yl)piperidin-1-yl)-2-((2S,4S)-2-(hydroxymethyl)-4-(trifluoromethyl)pyrrolidin-1-yl)ethan-1-one] | 6.08 | 7.84 | 6.82 | – | – | – | – | –
CNCCN1CCC(c2ccc3[nH]c(-c4ccnc(C#N)c4)c(C)c3c2)CC1 [Example 755, 4-(3-methyl-5-(1-(2-(methylamino)ethyl)piperidin-4-yl)-1H-indol-2-yl)picolinonitrile] | 6.22 | 5.58 | 7.06 | – | – | – | – | –
CCc1c(-c2ccnc(C)c2)[nH]c2ccc(C3CCN(C[C@@H]4CCCN4)CC3)cc12 [Example 740, (S)-3-ethyl-2-(2-methylpyridin-4-yl)-5-(1-(pyrrolidin-2-ylmethyl)piperidin-4-yl)-1H-indole] | – | 7.17 | – | 6.95 | 8.22 | – | – | –
Cc1cc(-c2[nH]c3ccc(C4CCN(CC5CCCC5)CC4)cc3c2C(C)C)cc(C)n1 [Example 468, 5-(1-(cyclopentylmethyl)piperidin-4-yl)-2-(2,6-dimethylpyridin-4-yl)-3-isopropyl-1H-indole] | 5.87 | 7.75 | 7.45 | – | – | – | – | –
Cc1cc(-c2[nH]c3ccc(C4CCNCC4)c(F)c3c2C(C)C)ccn1 [Example 76, 4-fluoro-3-isopropyl-2-(2-methylpyridin-4-yl)-5-(piperidin-4-yl)-1H-indole] | 6.36 | 8.85 | 8.57 | – | – | – | – | –
Cc1nc[nH]c1CN1CCC(c2ccc3[nH]c(-c4ccnc(N)c4)c(C(C)C)c3c2)CC1 [Example 816, 4-(3-isopropyl-5-(1-((4-methyl-1H-imidazol-5-yl)methyl)piperidin-4-yl)-1H-indol-2-yl)pyridin-2-amine] | – | – | – | – | – | 7.07 | 6.67 | 7.33
